# Paper PMC4578755, “Development of novel cellular histone-binding and chromatin-displacement assays for bromodomain drug discovery” (Epigenetics & Chromatin, 2015)
# What was measured:
# [1] = test system: FLAG-tagged BRD4 in HeLa cells; test: In situ cell extraction with IF, BRD4 displacement from chromatin; format: cell-based; conditions: for IF signal for histone H3: HeLa FLAG-BRD4, two-color staining
# [2] = test system: SMARCA2; set-up: method as in PMID 26139243; conditions: cited from earlier work
# [3] = molecular target: T1, FLAG-tagged BRD4 in HeLa cells (Homo sapiens, UniProt O60885); test: In situ cell extraction with IF, BRD4 displacement from chromatin; format: cell-based; conditions: HeLa FLAG-BRD4, 96-well, IF
# T1 construct: expressed in transfected cells; host or cells: HeLa
# [4] = test system: histone H3K23Ac mark in HeLa cells; test: H3K23 acetylation in HeLa cells (Western blot, anti-H3K23Ac immunostaining); format: cell-based; conditions: HDAC inhibitor treatment, 2 µM, 2 h; Western blot
# Method: Standard IF procedures were used. Briefly, cells were permeabilized (0.5 % Triton X-100 in PBS) for 15 min and incubated with blocking solution (DAKO #X0909) for 30 min. The following primary antibodies were used: goat anti-V5 (Bethyl #A190-119A) 1:200; mouse anti-FLAG (Sigma #F1804) 1:200; rabbit anti-BRD4 (Abcam #ab128874) 1:200; rabbit anti-TRIM24 (Proteintech #14208-1-AP) 1:400; rabbit anti-K3K23Ac (Cell Signaling #8848) 1:200, and mouse anti-histone H3 (Active Motif #39763) 1:4000. Alexa Fluor-conjugated secondary antibodies were from Invitrogen and Hoechst 33342 (Invitrogen, #H3570) was used for nuclei counterstaining (10 µg/ml). For each Alexa fluorochrome, images (4–10 fields per well; 20X magnifications) were acquired using the Operetta High-Content Screening System (PerkinElmer). Image analysis was performed in Harmony software (PerkinElmer) by selecting nuclei and cytoplasm in Hoechst channel. Gating for single cells of flat morphology was done based on nuclei area, roundness and intensity of Hoechst in the nucleus and in the cytoplasm. In every gated cell, the mean signal intensity value for each fluorochrome was calculated separately in nucleus and cytoplasm. The specific nuclear signal was estimated subtracting mean cytoplasmic value from nuclear; and average value was calculated using at least 1000 cells in each well.
# [5] = molecular target: biotinylated H3K23Ac peptide (N-terminal residues 1-33 of histone H3); test: AlphaScreen or HTRF; AlphaScreen; biotinylated H3K23Ac peptide in excess (1 µM), indicated amounts of His-TRIM24 WT or N980A; streptavidin donor beads and Ni-NTA acceptor beads
# [6] = molecular target: biotinylated H3K23Ac peptide (N-terminal residues 1-33 of histone H3); test: AlphaScreen or HTRF; AlphaScreen optimisation matrix of TRIM24 protein and peptide (twofold dilution series); final conditions 5 nM TRIM24 and 15 nM peptide; Buffer B (50 mM Hepes pH 7.4, 100 mM NaCl, 0.1 % BSA, 0.05 % Chaps), room temperature
# [7] = molecular target: FLAG-TRIM24-PHD-Bromo-V5 (isolated PHD-bromodomain, residues 810-1050) (human) (UniProt O15164); test: AlphaScreen or HTRF; AlphaLISA on lysates of HeLa TRIM24-PB cells pretreated with SAHA or DMSO; anti-FLAG or anti-V5 acceptor beads, biotinylated anti-histone H3 antibody, streptavidin donor beads; histone extraction buffer diluted in water
# [8] = molecular target: FLAG-TRIM24-PHD-Bromo-V5 (isolated PHD-bromodomain, residues 810-1050) (human) (UniProt O15164); test: proximity ligation; HeLa TRIM24-PB cells, fixed; goat anti-V5 and mouse anti-histone H3 antibody pair; with and without SAHA (5 µM, 2 h)
# biotinylated H3K23Ac peptide (N-terminal residues 1-33 of histone H3), sequence (peptide, as listed by the source): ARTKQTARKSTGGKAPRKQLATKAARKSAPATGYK
compound,measurement,setting,value
Cc1sc2c(c1C)C(c1ccc(Cl)cc1)=N[C@@H](CC(=O)OC(C)(C)C)c1nnc(C)n1-2 [JQ1],IF signal for histone H3,[1],unaffected
same,Time to decrease in BRD4 bromodomain binding to chromatin,"[1]; JQ1 1 µM, HeLa expressing FLAG-tagged bromodomain of BRD4",≤ 5 min
O=C(/C=C/N1C[C@H]2C[C@@H]1CN2c1ccccn1)c1ccccc1O [PFI-3],Displacement of endogenous full-length SMARCA2 protein from chromatin,[2],fails to displace
same,Displacement of isolated GFP-tagged SMARCA2 bromodomain from chromatin,[2]; engineered cells,can displace
COc1cc(OC)c2c(=O)[nH]c(-c3cc(C)c(OCCO)c(C)c3)nc2c1 [RVX-208],Displacement of BRD4 from chromatin,[3],partial displacement
"CC(/C=C/C(=O)NO)=C\[C@@H](C)C(=O)c1ccc(N(C)C)cc1 [TSA, Trichostatin A]",Cellular histone H3K23Ac mark,[4],hyperacetylated
"His-tagged TRIM24 PHD-bromodomain, wild type (domain or fragment)",AlphaScreen signal to background (S/B),[5],> 250
same,AlphaScreen S/B at 5 nM TRIM24 and 15 nM peptide,[6],432
I-BET 151,IF signal for histone H3,[1],unaffected
endogenous histone H3 (from UniProt P68431 1-136) (natural protein),"AlphaLISA S/B (FLAG-acceptor beads, histone extraction buffer diluted 1:10)",[7],50 fold
same,"AlphaLISA S/B (FLAG-acceptor beads, histone extraction buffer replaced by water)",[7],20
same,AlphaLISA S/B (V5-acceptor beads),[7],14 fold
same,"AlphaLISA S/B (final 384-well protocol, 26 plates)",[7],30
same,fold increase of the PLA signal with SAHA against no SAHA,[8],> 3 fold
